Reference: PubChem BioAssay AID1919006 (Molecular Pharmacology Branch, DTP, NCI, 2023)
“And” between values parts separate entries of the source, which are not always exact repeats. Identical values can stand only once.

System: 885512-296-R-J2-PDC complex spheroid growth, % test/control
Experiment: Anticancer human tumor 885512-296-R-J2-PDC patient-derived breast carcinoma cell line growth inhibition [AhR]
Conditions: for viability, T/C: stronger effect = lower value
Outline: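 Spheroids combined tumor cells with HUVEC endothelial cells and human MSCs as stroma. AhR antagonists were paired with standard or investigational drugs, each dosed in half-log steps down from near clinical Cmax, or from 10 microM where Cmax was unknown.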

[1] = curve of first compound, second compound 0.1 µM
[2] = curve of first compound, second compound 0.316 µM
[3] = curve of first compound, second compound 1 µM
[4] = curve of first compound, second compound 3.16 µM
[5] = curve of first compound, second compound 10 µM
[6] = second compound 0.1 µM, first compound 0.0316 µM
[7] = second compound 0.1 µM, first compound 0.1 µM
[8] = second compound 0.1 µM, first compound 0.316 µM
[9] = second compound 0.1 µM, first compound 1 µM
[10] = second compound 0.316 µM, first compound 0.0316 µM
[11] = second compound 0.316 µM, first compound 0.1 µM
[12] = second compound 0.316 µM, first compound 0.316 µM
[13] = second compound 0.316 µM, first compound 1 µM
[14] = second compound 1 µM, first compound 0.0316 µM
[15] = second compound 1 µM, first compound 0.1 µM
[16] = second compound 1 µM, first compound 0.316 µM
[17] = second compound 1 µM, first compound 1 µM
[18] = second compound 3.16 µM, first compound 0.0316 µM
[19] = second compound 3.16 µM, first compound 0.1 µM
[20] = second compound 3.16 µM, first compound 0.316 µM
[21] = second compound 3.16 µM, first compound 1 µM
[22] = second compound 10 µM, first compound 0.0316 µM
[23] = second compound 10 µM, first compound 0.1 µM
[24] = second compound 10 µM, first compound 0.316 µM
[25] = second compound 10 µM, first compound 1 µM
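Also: spheroids exposed to compounds for seven days.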

## CC1COCCN1c1cc(-c2ccnn2C)c2ccnc(-c3ccn[nH]3)c2n1 (configuration not stated) + Cc1cncc(-c2nc(NCCc3c[nH]c4ccccc34)c3ncn(C(C)C)c3n2)c1
[1]
  IC50: 0.0344 µM
[2]
  IC50: 0.0334 µM
[3]
  IC50: 0.0221 µM
[4]
  IC50: 0.00322 µM
[5]
  IC50: < 0.00316 µM
Second compound 0.1 µM, first compound 0.00316 µM
  viability, T/C: 99.4%
Second compound 0.1 µM, first compound 0.01 µM
  viability, T/C: 85.3%
[6]
  viability, T/C: 55.2%
[7]
  viability, T/C: 9.6%
[8]
  viability, T/C: 3.2%
[9]
  viability, T/C: 2.72%
Second compound 0.316 µM, first compound 0.00316 µM
  viability, T/C: 83.1%
Second compound 0.316 µM, first compound 0.01 µM
  viability, T/C: 95.9%
[10]
  viability, T/C: 51.9%
[11]
  viability, T/C: 9.85%
[12]
  viability, T/C: 3.26%
[13]
  viability, T/C: 2.57%
Second compound 1 µM, first compound 0.00316 µM
  viability, T/C: 74.4%
Second compound 1 µM, first compound 0.01 µM
  viability, T/C: 71.3%
[14]
  viability, T/C: 40.3%
[15]
  viability, T/C: 7.24%
[16]
  viability, T/C: 2.89%
[17]
  viability, T/C: 2.37%
Second compound 3.16 µM, first compound 0.00316 µM
  viability, T/C: 48.9%
Second compound 3.16 µM, first compound 0.01 µM
  viability, T/C: 50.1%
[18]
  viability, T/C: 33.7%
[19]
  viability, T/C: 8.94%
[20]
  viability, T/C: 2.55%
[21]
  viability, T/C: 2.78%
Second compound 10 µM, first compound 0.00316 µM
  viability, T/C: 13.3%
Second compound 10 µM, first compound 0.01 µM
  viability, T/C: 15.6%
[22]
  viability, T/C: 9.95%
[23]
  viability, T/C: 6.27%
[24]
  viability, T/C: 3.04%
[25]
  viability, T/C: 2.87%

## O=C(c1cc(Cc2n[nH]c(=O)c3ccccc23)ccc1F)N1CCN(C(=O)C2CC2)CC1 + Cc1ccccc1N=Nc1ccc(NC(=O)c2ccnn2C)c(C)c1
[1]
  IC50: 5.92 µM
[2]
  IC50: 5.82 µM
[3]
  IC50: 5.52 µM
[4]
  IC50: 4.79 µM
[5]
  IC50: 3.44 µM
[6]
  viability, T/C: 118%
[7]
  viability, T/C: 135%
[8]
  viability, T/C: 147%
[9]
  viability, T/C: 117%
Second compound 0.1 µM, first compound 3.16 µM
  viability, T/C: 83.7%
Second compound 0.1 µM, first compound 10 µM
  viability, T/C: 22.6%
[10]
  viability, T/C: 138%
[11]
  viability, T/C: 145%
[12]
  viability, T/C: 138%
[13]
  viability, T/C: 130%
Second compound 0.316 µM, first compound 3.16 µM
  viability, T/C: 80%
Second compound 0.316 µM, first compound 10 µM
  viability, T/C: 23.4%
[14]
  viability, T/C: 121%
[15]
  viability, T/C: 133%
[16]
  viability, T/C: 132%
[17]
  viability, T/C: 109%
Second compound 1 µM, first compound 3.16 µM
  viability, T/C: 80.4%
Second compound 1 µM, first compound 10 µM
  viability, T/C: 18.7%
[18]
  viability, T/C: 110%
[19]
  viability, T/C: 103%
[20]
  viability, T/C: 111%
[21]
  viability, T/C: 101%
Second compound 3.16 µM, first compound 3.16 µM
  viability, T/C: 66.6%
Second compound 3.16 µM, first compound 10 µM
  viability, T/C: 20.8%
[22]
  viability, T/C: 67.1%
[23]
  viability, T/C: 59.5%
[24]
  viability, T/C: 66.4%
[25]
  viability, T/C: 70.8%
Second compound 10 µM, first compound 3.16 µM
  viability, T/C: 52.6%
Second compound 10 µM, first compound 10 µM
  viability, T/C: 17.5%

## Nc1ncn(C2CC(O)C(CO)S2)c(=O)n1 (configuration not stated)
Compound 0.000949 µM
  viability, T/C: 109% and 103% and 93%
Compound 0.003 µM
  viability, T/C: 93.6% and 108% and 103%
Compound 0.00949 µM
  viability, T/C: 96.9% and 120% and 104%
Compound 0.03 µM
  viability, T/C: 89.1% and 99.3% and 116%
Compound 0.0949 µM
  viability, T/C: 56.2% and 61.2% and 75.9%
Compound 0.3 µM
  viability, T/C: 31.1% and 37% and 43.6%
Curve of compound
  IC50: 0.129 µM and 0.16 µM and 0.239 µM
